What was measured:
[1] = system: patients; conditions: three or four suppositories of 1 mg at regular intervals; various studies; cited from earlier work
[2] = system: Swiss male mice; assay: Motor activity in mice (rota-rod); conditions: 5 mg/kg, i.p. (table); positive control
[3] = system: platelets; conditions: background statement; cited from earlier work

SMILES	concentration that inhibits platelets aggregation "in vitro" [3]	other results
CCCCC(C)(C)[C@H](O)/C=C/[C@H]1[C@H](O)CC(=O)[C@@H]1CCCC/C=C/C(=O)OC (relative stereo) [gemeprost, 16,16-dimethyl-trans-Δ^2-PGE1 methyl ester]	–	complete abortions (% of the patients) [1]: more than 90%
CN1C(=O)CN=C(c2ccccc2)c2cc(Cl)ccc21 [Diazepam, reference compound]	–	Fraction (animals fallen before 300 sec/total number of animals) [2]: 8/10
CCCCC[C@H](O)/C=C/[C@H]1C(=O)C[C@H](O)[C@@H]1C/C=C\CCCC(=O)O [PGD2]	0.1 µM	–
CCCCC[C@H](O)/C=C/[C@H]1[C@H](O)CC(=O)[C@@H]1CCCCCCC(=O)O [PGE1]	0.1 µM	–
